Measured values as given in article PMC7093416, “Selective USP7 inhibition elicits cancer cell killing through a p53-dependent mechanism” (Scientific Reports, 2020).

System: panel of 484 cancer cell lines
Test: PRISM cancer cell line profiling, 5 days
Type: cell-based
Set-up: AUC: unit not given beside the values
Experimental: Cancer cell line profiling was performed using the Broad’s PRISM platform. Cell treatment and data analysis were performed as described in Yu et al[42]. Raw Luminex signal was converted to AUC values for each cell line as described. The resulting AUC profile for each compound was modeled against DepMap using the limma package in R[71]. Because hotspot mutation analysis was performed against DepMap, TP53 annotations in Fig. 6c,d are directly from DepMap.

SMILES: CN1CCN(CCC(=O)Nc2ccc3c(=O)n(CC4(O)CCN(C(=O)[C@H](CCCNC(=O)c5ccc6c(Cl)c7c(nc6c5)CCCC7)Cc5ccccc5)CC4)cnc3c2)CC1 [XL177B]
- AUC (RT112_URINARY_TRACT): 0.9816
- AUC (RVH421_SKIN): 0.8995
- AUC (S117_SOFT_TISSUE): 0.9955
- AUC (SBC5_LUNG): 1.053
- AUC (SCABER_URINARY_TRACT): 1.101
- AUC (SCC25_UPPER_AERODIGESTIVE_TRACT): 0.9004
- AUC (SF126_CENTRAL_NERVOUS_SYSTEM): 0.9271
- AUC (SF295_CENTRAL_NERVOUS_SYSTEM): 1.235
- AUC (SF539_CENTRAL_NERVOUS_SYSTEM): 0.9498
- AUC (SH4_SKIN): 0.9224
- AUC (SH10TC_STOMACH): 1.086
- AUC (SIMA_AUTONOMIC_GANGLIA): 1.191
- AUC (SJSA1_BONE): 1.13
- AUC (SKES1_BONE): 0.9809
- AUC (SKHEP1_LIVER): 0.9481
- AUC (SKLU1_LUNG): 1.195
- AUC (SKMEL2_SKIN): 0.945
- AUC (SKMEL3_SKIN): 1.224
- AUC (SKMEL5_SKIN): 1.137
- AUC (SKMEL24_SKIN): 1.275
- AUC (SKMEL30_SKIN): 1.1049
- AUC (SKMES1_LUNG): 1.035
- AUC (SKNAS_AUTONOMIC_GANGLIA): 1.162
- AUC (SKNBE2_AUTONOMIC_GANGLIA): 0.9661
- AUC (SKOV3_OVARY): 1.113
- AUC (SKUT1_SOFT_TISSUE): 1.098
- AUC (SNB75_CENTRAL_NERVOUS_SYSTEM): 1.029
- AUC (SNGM_ENDOMETRIUM): 1.214
- AUC (SNU46_UPPER_AERODIGESTIVE_TRACT): 1.023
- AUC (SNU61_LARGE_INTESTINE): 1.357
- AUC (SNU81_LARGE_INTESTINE): 1.469
- AUC (SNU213_PANCREAS): 0.9253
- AUC (SNU245_BILIARY_TRACT): 1.172
- AUC (SNU308_BILIARY_TRACT): 1.2193
- AUC (SNU398_LIVER): 1.038
- AUC (SNU407_LARGE_INTESTINE): 0.8767
- AUC (SNU410_PANCREAS): 1.127
- AUC (SNU423_LIVER): 1.115
- AUC (SNU449_LIVER): 0.9807
- AUC (SNU466_CENTRAL_NERVOUS_SYSTEM): 0.8672
- AUC (SNU601_STOMACH): 1.056
- AUC (SNU668_STOMACH): 0.9502
- AUC (SNU685_ENDOMETRIUM): 0.9823
- AUC (SNU719_STOMACH): 1.037
- AUC (SNU738_CENTRAL_NERVOUS_SYSTEM): 1.115
- AUC (SNU761_LIVER): 1.164
- AUC (SNU840_OVARY): 1.115
- AUC (SNU869_BILIARY_TRACT): 1.118
- AUC (SNU886_LIVER): 1.231
- AUC (SNU1041_UPPER_AERODIGESTIVE_TRACT): 1.134
- AUC (SNU1066_UPPER_AERODIGESTIVE_TRACT): 1.18
- AUC (SNU1076_UPPER_AERODIGESTIVE_TRACT): 0.9825
- AUC (SNU1077_ENDOMETRIUM): 1.083
- AUC (SNU1079_BILIARY_TRACT): 1.166
- AUC (SNU1105_CENTRAL_NERVOUS_SYSTEM): 1.105
- AUC (SNU1196_BILIARY_TRACT): 1.09
- AUC (SNU1214_UPPER_AERODIGESTIVE_TRACT): 0.9564
- AUC (SNUC2A_LARGE_INTESTINE): 1.042
- AUC (SNUC4_LARGE_INTESTINE): 1.117
- AUC (SNUC5_LARGE_INTESTINE): 1.097
- AUC (SQ1_LUNG): 1.099
- AUC (SUIT2_PANCREAS): 1.021
- AUC (SW480_LARGE_INTESTINE): 1.084
- AUC (SW579_THYROID): 1.209
- AUC (SW620_LARGE_INTESTINE): 1.165
- AUC (SW780_URINARY_TRACT): 1.236
- AUC (SW837_LARGE_INTESTINE): 1.0717
- AUC (SW900_LUNG): 1.235
- AUC (SW948_LARGE_INTESTINE): 1.132
- AUC (SW1088_CENTRAL_NERVOUS_SYSTEM): 1.121
- AUC (SW1271_LUNG): 1.015
- AUC (SW1353_BONE): 0.6793
- AUC (SW1573_LUNG): 1.097
- AUC (SW1710_URINARY_TRACT): 1.102
- AUC (SW1990_PANCREAS): 1.083
- AUC (T3M10_LUNG): 1.12
- AUC (T24_URINARY_TRACT): 1.071
- AUC (T47D_BREAST): 1.066
- AUC (T98G_CENTRAL_NERVOUS_SYSTEM): 0.9969
- AUC (TCCPAN2_PANCREAS): 1.118
- AUC (TCCSUP_URINARY_TRACT): 1.104
- AUC (TE1_OESOPHAGUS): 1.328
- AUC (TE4_OESOPHAGUS): 1.033
- AUC (TE5_OESOPHAGUS): 0.9565
- AUC (TE6_OESOPHAGUS): 1.06
- AUC (TE8_OESOPHAGUS): 0.9218
- AUC (TE9_OESOPHAGUS): 1.298
- AUC (TE10_OESOPHAGUS): 0.9856
- AUC (TE11_OESOPHAGUS): 1.076
- AUC (TEN_ENDOMETRIUM): 0.9874
- AUC (TM31_CENTRAL_NERVOUS_SYSTEM): 1.105
- AUC (TM87_SOFT_TISSUE): 1.039
- AUC (TOV21G_OVARY): 0.7718
- AUC (TOV112D_OVARY): 0.9778
- AUC (TT2609C02_THYROID): 1.023
- AUC (TT_OESOPHAGUS): 1.189
- AUC (TT_THYROID): 0.9532
- AUC (TUHR4TKB_KIDNEY): 1.093
- AUC (U2OS_BONE): 1.264
- AUC (U118MG_CENTRAL_NERVOUS_SYSTEM): 1.3332
- AUC (U251MG_CENTRAL_NERVOUS_SYSTEM): 1.04
- AUC (UACC62_SKIN): 0.9925
- AUC (UACC257_SKIN): 0.9688
- AUC (UBLC1_URINARY_TRACT): 1.0896
- AUC (UMUC1_URINARY_TRACT): 1.045
- AUC (UO31_KIDNEY): 1.143
- AUC (VMCUB1_URINARY_TRACT): 0.9508
- AUC (VMRCRCW_KIDNEY): 1.069
- AUC (VMRCRCZ_KIDNEY): 1.083
- AUC (WM88_SKIN): 1.093
- AUC (WM793_SKIN): 1.133
- AUC (WM983B_SKIN): 1.143
- AUC (WM1799_SKIN): 0.7611
- AUC (WM2664_SKIN): 1.168
- AUC (YAPC_PANCREAS): 1.439
- AUC (YD8_UPPER_AERODIGESTIVE_TRACT): 1.127
- AUC (YD10B_UPPER_AERODIGESTIVE_TRACT): 0.9769
- AUC (YD15_SALIVARY_GLAND): 0.9723
- AUC (YD38_UPPER_AERODIGESTIVE_TRACT): 1.117
- AUC (YH13_CENTRAL_NERVOUS_SYSTEM): 1.068
- AUC (YKG1_CENTRAL_NERVOUS_SYSTEM): 1.107
- AUC (ZR751_BREAST): 0.9538
